Experiments:
[1] = system: bleomycin-induced pulmonary fibrosis; assay: Bleomycin (BLM)-induced pulmonary fibrosis in mice; assay type: in vivo, C57BL/6 mice; settings: for antifibrotic effect in six-week course of BLM-induced fibrosis: Example 3, 5 mg/kg/day over weeks 4-6, FIG. 4
Procedure: C57BL/6 mice received subcutaneous implants of an ALZET mini-osmotic pump (Durect Corp., California) that released BLM continuously (Example 1, […]; Example 2, 120 U/kg/mouse/day) for seven days (Day 1-Day 7), to induce lung fibrosis (Lab Invest. 50:487-488, 1984; Am. J. Resp. Cell Mol. Biol. 45:489-497, 2011). Bleomycin induces epithelial injury, causing increased pulmonary inflammation from Days 1-21, peaking at about Day 10 before subsiding. Fibrosis begins at about Day 8 and gradually increases until Day 28.
BLM mice treated with test compound received a second subcutaneous ALZET mini-osmotic pump (Durect Corp., California) that released Compound A continuously. Compound A, 4-(((6S,9S,9aS)-1-(benzylcarbamoyl)-2,9-dimethyl-4,7-dioxo-8-(quinolin-8-ylmethyl)octahydro-1H-pyrazino[2,1-c][1,2,4]triazin-6-yl)methyl)phenyl dihydrogen phosphate.
Ashcroft score (J. Clin. Pathol. 41:467-470, 1988) was calculated from tissue sections of right lung stained by H&E. Left lung homogenates were analyzed for soluble collagen content using SIRCOL Collagen Assay kit (Biocolor Ltd., Carrickfergus, UK).
In Example 1, Compound A was administered 5 mg/kg/day over days 15-28.
In Example 2, Compound A was administered 1 mg/kg/day over Days 1-28 (“whole”), Days 1-14 (“early”) or Days 15-28 (“late”). […] Bleo, bleomycin treatment alone; Bleo+Cmpd A whole, bleomycin plus Compound A administered throughout 4 week period; Bleo+early 2w, bleomycin plus Compound A administered over weeks 1-2; Bleo+late 2w, bleomycin plus Compound A administered over weeks 3-4.
In Example 3, a six-week rather than four-week course of BLM-induced fibrosis was studied. In this example, either Compound A (5 mg/kg/day) or ICG-001 (5 mg/kg/day), another β-catenin inhibitor, was administered to BLM-treated mice over weeks 4-6.

[2] = system: lung epithelial cell line LA-4; assay: TGF-β-induced epithelial-to-mesenchymal transition (EMT) in LA-4 cells; assay type: cell-based, murine
Procedure: In Example 4, the murine lung epithelial cell line, LA-4, available from the American Type Culture Collection (ATCC; Manassas, Va.), was treated with TGF-β (5 ng/ml) to induce epithelial-to-mesenchymal transition (EMT), a marker for fibrosis (J Clin Invest. 119:1420-1428, 2009). TGF-β treated cells were treated with no or with increasing concentrations (0.01 μM, 0.05 μM, 0.1 μM, or 0.5 μM) of Compound C. Compound C, (6S,9S,9aS)—N-benzyl-6-(4-hydroxybenzyl)-2,9-dimethyl-4,7-dioxo-8-(quinolin-8-ylmethyl)octahydro-1H-pyrazino[2,1-c][1,2,4]triazine-1-carboxamide.

[3] = system: bleomycin-induced lung fibrosis; settings: cited from earlier work
[4] = molecular target: β-catenin/CBP interaction (Homo sapiens, UniProt Q92793); settings: cited from earlier work
Chain of β-catenin/CBP interaction (Q92793 whole entry): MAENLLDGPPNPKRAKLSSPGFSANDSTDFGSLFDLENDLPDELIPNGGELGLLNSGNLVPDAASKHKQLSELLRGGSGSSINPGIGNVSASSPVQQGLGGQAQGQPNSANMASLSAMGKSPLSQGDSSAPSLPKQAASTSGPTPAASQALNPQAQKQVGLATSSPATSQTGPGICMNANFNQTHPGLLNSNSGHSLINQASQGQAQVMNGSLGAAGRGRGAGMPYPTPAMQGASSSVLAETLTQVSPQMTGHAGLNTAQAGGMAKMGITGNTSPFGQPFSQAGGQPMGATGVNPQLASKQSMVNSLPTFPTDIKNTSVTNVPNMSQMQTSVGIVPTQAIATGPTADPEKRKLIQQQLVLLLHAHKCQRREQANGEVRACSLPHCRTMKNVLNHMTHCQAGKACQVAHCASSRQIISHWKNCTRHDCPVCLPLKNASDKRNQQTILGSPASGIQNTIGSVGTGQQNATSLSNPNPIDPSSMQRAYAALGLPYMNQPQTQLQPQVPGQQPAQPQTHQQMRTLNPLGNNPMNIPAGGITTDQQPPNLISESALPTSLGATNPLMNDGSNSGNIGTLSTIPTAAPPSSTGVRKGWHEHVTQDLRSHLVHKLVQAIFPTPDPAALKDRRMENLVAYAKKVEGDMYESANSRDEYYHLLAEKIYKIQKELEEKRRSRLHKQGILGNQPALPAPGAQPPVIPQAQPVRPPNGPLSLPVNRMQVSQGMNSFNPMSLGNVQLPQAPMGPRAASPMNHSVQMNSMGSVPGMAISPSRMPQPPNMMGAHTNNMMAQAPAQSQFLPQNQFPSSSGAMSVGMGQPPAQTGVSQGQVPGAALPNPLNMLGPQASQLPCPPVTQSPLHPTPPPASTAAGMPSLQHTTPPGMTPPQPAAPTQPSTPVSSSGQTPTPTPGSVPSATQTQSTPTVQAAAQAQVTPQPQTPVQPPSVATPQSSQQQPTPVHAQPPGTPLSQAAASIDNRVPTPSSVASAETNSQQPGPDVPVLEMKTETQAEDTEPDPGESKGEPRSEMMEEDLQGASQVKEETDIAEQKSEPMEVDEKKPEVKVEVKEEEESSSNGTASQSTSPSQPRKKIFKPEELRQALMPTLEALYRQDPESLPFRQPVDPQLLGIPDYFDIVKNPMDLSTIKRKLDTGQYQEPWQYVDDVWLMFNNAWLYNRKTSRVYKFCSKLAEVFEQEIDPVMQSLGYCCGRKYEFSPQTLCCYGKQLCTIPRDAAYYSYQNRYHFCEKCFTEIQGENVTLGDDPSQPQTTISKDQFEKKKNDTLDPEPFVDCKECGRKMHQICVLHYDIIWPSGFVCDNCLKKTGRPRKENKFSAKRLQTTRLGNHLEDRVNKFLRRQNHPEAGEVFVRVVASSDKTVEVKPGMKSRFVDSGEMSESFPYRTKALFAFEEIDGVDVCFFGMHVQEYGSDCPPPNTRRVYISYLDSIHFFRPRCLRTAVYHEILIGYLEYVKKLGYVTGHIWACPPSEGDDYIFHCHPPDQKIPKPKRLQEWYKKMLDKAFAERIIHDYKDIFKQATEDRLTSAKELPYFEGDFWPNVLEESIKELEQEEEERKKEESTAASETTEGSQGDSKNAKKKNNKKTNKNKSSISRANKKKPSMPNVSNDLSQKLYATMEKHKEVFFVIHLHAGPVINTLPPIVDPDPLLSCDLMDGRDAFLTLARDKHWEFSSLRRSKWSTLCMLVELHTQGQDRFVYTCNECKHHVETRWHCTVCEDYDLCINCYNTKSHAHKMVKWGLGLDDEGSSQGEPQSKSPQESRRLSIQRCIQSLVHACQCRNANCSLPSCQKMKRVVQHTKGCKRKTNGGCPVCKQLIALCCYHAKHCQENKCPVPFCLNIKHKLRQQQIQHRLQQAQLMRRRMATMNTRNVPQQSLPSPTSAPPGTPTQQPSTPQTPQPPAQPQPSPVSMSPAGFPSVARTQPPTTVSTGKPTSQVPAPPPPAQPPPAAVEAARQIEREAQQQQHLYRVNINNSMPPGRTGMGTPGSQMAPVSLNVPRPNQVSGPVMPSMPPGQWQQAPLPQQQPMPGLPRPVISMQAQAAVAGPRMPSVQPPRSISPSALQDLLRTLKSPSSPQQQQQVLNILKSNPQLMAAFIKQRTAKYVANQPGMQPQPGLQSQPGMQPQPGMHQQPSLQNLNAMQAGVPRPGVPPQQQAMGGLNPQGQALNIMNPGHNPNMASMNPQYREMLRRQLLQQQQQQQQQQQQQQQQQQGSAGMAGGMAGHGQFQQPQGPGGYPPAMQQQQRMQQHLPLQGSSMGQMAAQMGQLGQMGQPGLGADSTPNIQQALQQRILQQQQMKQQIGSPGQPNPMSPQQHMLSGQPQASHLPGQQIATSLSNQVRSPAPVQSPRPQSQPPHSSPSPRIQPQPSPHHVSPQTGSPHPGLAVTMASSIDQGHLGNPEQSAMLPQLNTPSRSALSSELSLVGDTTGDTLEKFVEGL

SMILES | lung fibrosis by histological examination ([1]; Example 1, 5 mg/kg, days 14-28, FIG. 2C) | lung fibrosis (Ashcroft score) ([1]; Example 1, 5 mg/kg/day s.c. osmotic pump, days 15-28 (days 14-28), FIG. 1A, vs bleomycin alone) | collagen deposition (SIRCOL collagen assay, left lung) ([1]; Example 1, 5 mg/kg/day, days 15-28 (days 14-28), FIG. 1B, vs bleomycin alone) | antifibrotic effect, early (inflammatory) phase treatment ([1]; Example 2, 1 mg/kg/day, Days 1-14 (early), FIG. 3, vs no test compound) | antifibrotic effect, late (fibrotic) phase treatment ([1]; Example 2, 1 mg/kg/day, Days 15-28 (late), FIG. 3) | late phase treatment compared with treatment throughout the entire period ([1]; Example 2, 1 mg/kg/day, Days 15-28 vs Days 1-28 (whole), FIG. 3) | antifibrotic effect in six-week course of BLM-induced fibrosis [1] | α-SMA expression by fluorescent microscopy ([2]; TGF-β 5 ng/ml plus compound 0.01 μM, FIG. 6) | TGF-β-induced alpha smooth muscle actin (α-SMA) formation / EMT ([2]; TGF-β 5 ng/ml, increasing concentrations 0.01, 0.05, 0.1, 0.5 μM, FIG. 5) | bleomycin-induced lung fibrosis ([3]; 5 mg/kg per day, mice) | β-catenin signaling ([3]; 5 mg/kg per day, mice) | fibrosis, administration concurrent with bleomycin ([3]; concurrent administration) | established fibrosis, late administration ([3]; late administration) | survival, late administration ([3]; late administration) | selectivity β-catenin/CBP vs β-catenin/p300 interaction [4]
C[C@H]1[C@H]2N(C(=O)CN(C)N2C(=O)NCc2ccccc2)[C@@H](Cc2ccc(OP(=O)(O)O)cc2)C(=O)N1Cc1cccc2cccnc12 [Compound A, 4-(((6S,9S,9aS)-1-(benzylcarbamoyl)-2,9-dimethyl-4,7-dioxo-8-(quinolin-8-ylmethyl)octahydro-1H-pyrazino[2,1-c][1,2,4]triazin-6-yl)methyl)phenyl dihydrogen phosphate] | reduces lung fibrosis | reduces lung fibrosis | reduced | not significantly beneficial | significantly reduced lung fibrosis | equal to, or even superior to | has an antifibrotic effect |  |  |  |  |  |  |  | 
C[C@H]1[C@H]2N(C(=O)CN(C)N2C(=O)NCc2ccccc2)[C@@H](Cc2ccc(O)cc2)C(=O)N1Cc1cccc2cccnc12 [Compound C, (6S,9S,9aS)—N-benzyl-6-(4-hydroxybenzyl)-2,9-dimethyl-4,7-dioxo-8-(quinolin-8-ylmethyl)octahydro-1H-pyrazino[2,1-c][1,2,4]triazine-1-carboxamide] |  |  |  |  |  |  |  | decreased alpha smooth muscle actin (α-SMA) expression | inhibit TGF-β-induced alpha smooth muscle actin (α-SMA) formation |  |  |  |  |  | 
O=C1[C@H](Cc2ccc(O)cc2)N2C(=O)CCN(C(=O)NCc3ccccc3)[C@H]2CN1Cc1cccc2ccccc12 [ICG-001] |  |  |  |  |  |  | antifibrotic effect, unlike β-catenin inhibitor ICG-001 |  |  | attenuates bleomycin-induced lung fibrosis | significantly inhibits β-catenin signaling | prevents fibrosis | reverse established fibrosis | significantly improve survival | selectively blocks the β-catenin/CBP interaction without interfering with the β-catenin/p300 interaction
